Settings: 101.33 kPa, Liquid; for viscosity: Concentric cylinders viscometry; for mass density: Vibrating tube method

CCCCCCCCCCCCCCCC(=O)OC [methyl hexadecanoate]
Settings | mass density [kg/m3] | viscosity [mPa·s]
308.15 K | 854.5 | 4.212
313.15 K | 850.8 | 3.755
318.15 K | 847 | 3.368
323.15 K | 843.3 | 3.038
328.15 K | 839.6 | 2.754
333.15 K | 835.8 | 2.508
338.15 K | 832.1 | 2.295
343.15 K | 828.4 | 2.107
348.15 K | 824.7 | 1.942
353.15 K | 821 | 1.796
358.15 K | 817.3 | 1.666
363.15 K | 813.6 | 1.55

CCCCCCCCCCCCCCCCCC(=O)OC [methyl octadecanoate]
Settings | mass density [kg/m3] | viscosity [mPa·s]
313.15 K | 849.8 | 4.986
318.15 K | 846.1 | 4.435
323.15 K | 842.5 | 3.965
328.15 K | 838.9 | 3.568
333.15 K | 835.3 | 3.225
338.15 K | 831.7 | 2.929
343.15 K | 828.1 | 2.672
348.15 K | 824.5 | 2.448
353.15 K | 820.9 | 2.25
358.15 K | 817.3 | 2.076
363.15 K | 813.7 | 1.922

CCCCCCCCCC(=O)OCC [ethyl decanoate]
Settings | mass density [kg/m3] | viscosity [mPa·s]
283.15 K | 872.5 | 2.896
288.15 K | 868.4 | 2.588
293.15 K | 864.3 | 2.326
298.15 K | 860.2 | 2.103
303.15 K | 856.2 | 1.911
308.15 K | 852.1 | 1.745
313.15 K | 848 | 1.6
318.15 K | 843.9 | 1.473
323.15 K | 839.8 | 1.36
328.15 K | 835.7 | 1.259
333.15 K | 831.6 | 1.169
338.15 K | 827.5 | 1.089
343.15 K | 823.4 | 1.017
348.15 K | 819.2 | 0.9516
353.15 K | 815.1 | 0.8929

CCCCCCCCCCCCCCCC(=O)OCC [ethyl hexadecanoate]
Settings | mass density [kg/m3] | viscosity [mPa·s]
303.15 K | 852.6 | 5.011
308.15 K | 848.9 | 4.44
313.15 K | 845.2 | 3.956
318.15 K | 841.5 | 3.547
323.15 K | 837.9 | 3.197
328.15 K | 834.2 | 2.897
333.15 K | 830.5 | 2.637
338.15 K | 826.9 | 2.412
343.15 K | 823.2 | 2.214
348.15 K | 819.5 | 2.039
353.15 K | 815.9 | 1.884
358.15 K | 812.2 | 1.746
363.15 K | 808.6 | 1.623

CCCCC/C=C\C/C=C\CCCCCCCC(=O)OC [methyl (Z,Z)-9,12-octadecadienate]
Settings | mass density [kg/m3] | viscosity [mPa·s]
278.15 K | 897.2 | 7.466
283.15 K | 893.5 | 6.466
288.15 K | 889.9 | 5.655
293.15 K | 886.2 | 4.982
298.15 K | 882.5 | 4.428
303.15 K | 878.8 | 3.961
308.15 K | 875.2 | 3.567
313.15 K | 871.5 | 3.227
318.15 K | 867.9 | 2.936
323.15 K | 864.3 | 2.682
328.15 K | 860.7 | 2.461
333.15 K | 857 | 2.266
338.15 K | 853.4 | 2.093
343.15 K | 849.8 | 1.94
348.15 K | 846.1 | 1.804
353.15 K | 842.5 | 1.682
358.15 K | 838.7 | –
363.15 K | 835.1 | –

CCCCCCCCCCCCCC(=O)OCC [ethyl tetradecanoate]
Settings | mass density [kg/m3] | viscosity [mPa·s]
283.15 K | 868.7 | 6.26
288.15 K | 864.8 | 5.43
293.15 K | 861 | 4.749
298.15 K | 857.2 | 4.188
303.15 K | 853.4 | 3.721
308.15 K | 849.6 | 3.328
313.15 K | 845.8 | 2.993
318.15 K | 842 | 2.706
323.15 K | 838.2 | 2.458
328.15 K | 834.5 | 2.242
333.15 K | 830.7 | 2.055
338.15 K | 826.9 | 1.889
343.15 K | 823.1 | 1.743
348.15 K | 819.4 | 1.614
353.15 K | 815.6 | 1.499

CCCCCCCC/C=C\CCCCCCCC(=O)OC [methyl cis-9-octadecenoate]
Settings | mass density [kg/m3] | viscosity [mPa·s]
283.15 K | 881.4 | 8.699
288.15 K | 877.7 | 7.452
293.15 K | 874.1 | 6.45
298.15 K | 870.4 | 5.634
303.15 K | 866.8 | 4.961
308.15 K | 863.1 | 4.401
313.15 K | 859.5 | 3.93
318.15 K | 855.9 | 3.531
323.15 K | 852.3 | 3.189
328.15 K | 848.7 | 2.894
333.15 K | 845.1 | 2.638
338.15 K | 841.5 | 2.416
343.15 K | 837.9 | 2.222
348.15 K | 834.3 | 2.05
353.15 K | 830.7 | 1.897

CCCCCCCC/C=C\CCCCCCCC(=O)OCC [ethyl (Z)-9-octadeceneoate]
Settings | mass density [kg/m3] | viscosity [mPa·s]
278.15 K | 880.5 | 10.39
283.15 K | 876.9 | 8.839
288.15 K | 873.2 | 7.595
293.15 K | 869.5 | 6.591
298.15 K | 865.9 | 5.769
303.15 K | 862.2 | 5.092
308.15 K | 858.5 | 4.525
313.15 K | 854.9 | 4.048
318.15 K | 851.3 | 3.641
323.15 K | 847.6 | 3.292
328.15 K | 844 | 2.99
333.15 K | 840.4 | 2.729
338.15 K | 836.8 | 2.502
343.15 K | 833.1 | 2.301
348.15 K | 829.5 | 2.124
353.15 K | 825.9 | 1.967
358.15 K | 822.3 | 1.827
363.15 K | 818.7 | 1.702

CCCCCCCCCCCC(=O)OC [methyl dodecanoate]
Settings | mass density [kg/m3] | viscosity [mPa·s]
283.15 K | 877.7 | 4.068
288.15 K | 873.7 | 3.577
293.15 K | 869.8 | 3.167
298.15 K | 865.8 | 2.824
303.15 K | 861.8 | 2.536
308.15 K | 857.9 | 2.289
313.15 K | 853.9 | 2.078
318.15 K | 850 | 1.894
323.15 K | 846.1 | 1.735
328.15 K | 842.1 | 1.595
333.15 K | 838.1 | 1.471
338.15 K | 834.2 | 1.362
343.15 K | 830.2 | 1.265
348.15 K | 826.2 | 1.178
353.15 K | 822.3 | 1.1

CCCCCCCCCCCCCCCCCC(=O)OCC [ethyl octadecanoate]
Settings | mass density [kg/m3] | viscosity [mPa·s]
313.15 K | 844.8 | 5.082
318.15 K | 841.1 | 4.529
323.15 K | 837.5 | 4.057
328.15 K | 833.9 | 3.654
333.15 K | 830.3 | 3.307
338.15 K | 826.7 | 3.007
343.15 K | 823.1 | 2.744
348.15 K | 819.5 | 2.515
353.15 K | 815.9 | 2.313
358.15 K | 812.3 | 2.135
363.15 K | 808.7 | 1.978

CCCCCCCCCCCCCC(=O)OC [methyl tetradecanoate]
Settings | mass density [kg/m3] | viscosity [mPa·s]
298.15 K | 863.7 | 3.982
303.15 K | 859.9 | 3.543
308.15 K | 856 | 3.165
313.15 K | 852.2 | 2.845
318.15 K | 848.4 | 2.571
323.15 K | 844.6 | 2.334
328.15 K | 840.8 | 2.129
333.15 K | 837 | 1.95
338.15 K | 833.1 | 1.793
343.15 K | 829.3 | 1.655
348.15 K | 825.5 | 1.532
353.15 K | 821.8 | 1.423

CCCCCCCCCC(=O)OC [methyl decanoate]
Settings | mass density [kg/m3] | viscosity [mPa·s]
278.15 K | 884.7 | 2.989
283.15 K | 880.6 | 2.654
288.15 K | 876.4 | 2.373
293.15 K | 872.3 | 2.136
298.15 K | 868.2 | 1.933
303.15 K | 864.1 | 1.76
308.15 K | 860 | 1.609
313.15 K | 856 | 1.477
318.15 K | 851.9 | 1.361
323.15 K | 847.8 | 1.259
328.15 K | 843.6 | 1.167
333.15 K | 839.5 | 1.086
338.15 K | 835.3 | 1.013
343.15 K | 831.2 | 0.9477
348.15 K | 827 | 0.8886
353.15 K | 822.9 | 0.8342
358.15 K | 818.7 | 0.786
363.15 K | 814.5 | 0.7421

CCCCCCCC(=O)OC [methyl octanoate]
Settings | mass density [kg/m3] | viscosity [mPa·s]
283.15 K | 885.9 | 1.71
288.15 K | 881.5 | 1.559
293.15 K | 877.1 | 1.427
298.15 K | 872.8 | 1.313
303.15 K | 868.4 | 1.212
308.15 K | 864 | 1.123
313.15 K | 859.6 | 1.044
318.15 K | 855.2 | 0.9733
323.15 K | 850.8 | 0.9093
328.15 K | 846.4 | 0.8518
333.15 K | 841.9 | 0.7998
338.15 K | 837.5 | 0.7528
343.15 K | 833 | 0.7101
348.15 K | 828.5 | 0.6713
353.15 K | 824 | 0.6359

CCCCCCCCCCCC(=O)OCC [ethyl dodecanoate]
Settings | mass density [kg/m3] | viscosity [mPa·s]
283.15 K | 870.3 | 4.335
288.15 K | 866.4 | 3.813
293.15 K | 862.4 | 3.38
298.15 K | 858.5 | 3.015
303.15 K | 854.6 | 2.707
308.15 K | 850.7 | 2.446
313.15 K | 846.8 | 2.22
318.15 K | 842.9 | 2.024
323.15 K | 839 | 1.853
328.15 K | 835.1 | 1.704
333.15 K | 831.1 | 1.57
338.15 K | 827.2 | 1.453
343.15 K | 823.3 | 1.349
348.15 K | 819.4 | 1.254
353.15 K | 815.4 | 1.171

— the NIST ThermoML archive (doi:10.1021/je100042c)
